Consider two compounds from patent US11000033B2, “Ketone or oxime compound, and herbicide” (NISSAN CHEMICAL CORPORATION, priority 2014, dated 2021).

What all share (format): in vivo
Data set [1] deals with Echinochloa oryzacola Vasing. Nature of the data set: Test Example 1: herbicidal activity, application before weed generation in submerged conditions (symbol A). Conditions: application herbicide amount 320 g/ha. The procedure, abridged: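 Compound emulsion was diluted to a set herbicide amount and applied to the water surface on the sowing day, into submerged (4 cm) alluvial-soil pots sown with mixed weed seeds and transplanted 2.5-leaf rice. Pots were held in a 25–30 °C greenhouse, and weeds were scored 0–5 by herbicidal ratio after 3 weeks.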

The test system of data set [2] is Lolium multiflorum Lam. Nature of the data set: Test Example 4: herbicidal effect by soil treatment (symbol K). Particulars: 320 g/ha. In short, it runs like this: (§1)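 Seeds were sown in sterilized diluvial soil, covered with about 1.5 cm of soil, and the soil surface was sprayed with a water-diluted emulsion of the compound at a predetermined rate. Plants grew in a greenhouse at 25° C. to 30° C.; effects were scored visually 3 weeks after application.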

Data set [3] deals with soybean. Nature of the data set: Test Example 4: effect on crop by soil treatment (symbol d). Particulars: 320 g/ha. In short, it runs like this: (§2)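 Crop seeds, among them rice, wheat, beet and rapeseed, were sown in sterilized diluvial soil and covered with about 1.5 cm of soil. Boxes were kept in a greenhouse at 25° C. to 30° C. for plant growth.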
Data set [4] has as its system corn. Nature of the data set: Test Example 4: effect on crop by soil treatment (symbol c). Conditions: 320 g/ha. The procedure, abridged: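 The test used sterilized diluvial soil. Seed was set down in spots and overlaid with about 1.5 cm of soil before growth in a greenhouse kept at 25° C. to 30° C.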
Data set [5] deals with rice. Nature of the data set: Test Example 4: effect on crop by soil treatment (symbol b). Conditions: 320 g/ha. In short, it runs like this:
as §2

Data set [6] relates to Setaria viridis. As to the kind of experiment: Test Example 4: herbicidal effect by soil treatment (symbol G). Conditions: 320 g/ha. In short, it runs like this: as §1
The subject of data set [7] is soybean. As to the kind of experiment: Test Example 5: effect on crop by foliage application, plastic box (symbol d). Conditions: 320 g/ha, 3 weeks after application. The procedure, abridged:
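Plants were raised from seed in a greenhouse (25° C. to 30° C.) after sowing in a plastic box of sterilized diluvial soil.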

Data set [8] concerns Lolium multiflorum Lam. As to the kind of experiment: Test Example 5: herbicidal effect by foliage application, plastic box (symbol K). Particulars: 320 g/ha, 3 weeks after application. The procedure, abridged: (§3)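 Sowing in sterilized diluvial soil, 14 days' greenhouse growth at 25° C. to 30° C., then uniform small-sprayer foliar application of aqueous emulsion dilution; plants scored three weeks afterwards.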

The test system of data set [9] is Galium spurium. Nature of the data set: Test Example 4: herbicidal effect by soil treatment (symbol Q). Conditions: 320 g/ha. The procedure, abridged: as §1
Data set [10] deals with Apera spica-venti. As to the kind of experiment: Test Example 4: herbicidal effect by soil treatment (symbol L). Particulars: 320 g/ha. In short, it runs like this: as §1
Data set [11] concerns Alopecurus myosuroides. As to the kind of experiment: Test Example 5: herbicidal effect by foliage application, plastic box (symbol J). Conditions: 320 g/ha, 3 weeks after application. In short, it runs like this:
as §3

In data set [12] the test system is Veronica persica. As to the kind of experiment: Test Example 4: herbicidal effect by soil treatment (symbol R). Conditions: 320 g/ha. In short, it runs like this:
as §1

Data set [13] concerns Alopecurus myosuroides. Nature of the data set: Test Example 4: herbicidal effect by soil treatment (symbol J). Particulars: 320 g/ha. In short, it runs like this: as §1
Data set [14] has as its system Setaria viridis. Nature of the data set: Test Example 5: herbicidal effect by foliage application, plastic box (symbol G). Conditions: 320 g/ha, 3 weeks after application. The procedure, abridged:
as §3

Data set [15] deals with Veronica persica. Nature of the data set: Test Example 5: herbicidal effect by foliage application, plastic box (symbol R). Conditions: 320 g/ha, 3 weeks after application. In short, it runs like this:
as §3

Data set [16] deals with Amaranthus retroflexus. As to the kind of experiment: Test Example 5: herbicidal effect by foliage application, plastic box (symbol N). Conditions: 320 g/ha, 3 weeks after application. The procedure, abridged: as §3
In data set [17] the test system is Cyperus difformis. As to the kind of experiment: Test Example 3: herbicidal effect by foliage application, Wagner pot (symbol E). Conditions: application herbicide amount 320 g/ha. The procedure, abridged: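 The compound, formulated as an emulsion and diluted with water to a predetermined rate, is applied uniformly to leaves of two-week-old seedlings growing in submerged alluvial soil at 25–30 °C. Rice is included. Each plant is assessed 3 weeks later using defined criteria.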

Data set [18] deals with Avena fatua. Nature of the data set: Test Example 5: herbicidal effect by foliage application, plastic box (symbol I). Particulars: 320 g/ha, 3 weeks after application. The procedure, abridged: as §3
The subject of data set [19] is wheat. Nature of the data set: Test Example 4: effect on crop by soil treatment (symbol e). Conditions: 320 g/ha. The procedure, abridged:
as §2

For the compound `CON=C(C)CC1CC(OC(=O)c2nc(C)sc2C)=C(c2c(C)cc(C)cc2C)C1=O` (centres unmarked) [1-101], in data set [1], the “Herbicidal effect grade, A: Echinochloa oryzacola Vasing.” value is on record as 5 (Herbicidal ratio of 90% or more (almost completely withered)). Moreover, in data set [2], the “K: Lolium multiflorum Lam., herbicidal effect grade” value is listed as 5 (Herbicidal ratio of 90% or more (almost completely withered)). In data set [3], the “d: soybean, effect grade on crop” value is 2 (Herbicidal ratio of 20% or higher and lower than 40%). For the same compound, in [4], the “c: corn, effect grade on crop” value was 5 (Herbicidal ratio of 90% or more (almost completely withered)). Also, in data set [5], the “b: directly sowed rice plant, effect grade on crop” value is recorded as 5 (Herbicidal ratio of 90% or more (almost completely withered)). Further, the “G: Setaria viridis, herbicidal effect grade” value in [6] is 5 (Herbicidal ratio of 90% or more (almost completely withered)). Moreover, in data set [7], the “d: soybean, effect on crop (criteria 0-5)” value is 3 (Herbicidal ratio of 40% or higher and lower than 70%). In addition, in [8], the “K: Lolium multiflorum Lam., herbicidal effect (criteria 0-5)” value is recorded as 5 (Herbicidal ratio of 90% or more (almost completely withered)). In addition, the “Q: Galium spurium, herbicidal effect grade” value in data set [9] was 0 (Herbicidal ratio of 5% or lower (almost no effect)). The “L: Apera spica-venti, herbicidal effect grade” value in data set [10] is on record as 5 (Herbicidal ratio of 90% or more (almost completely withered)). For the same compound, in [11], the “J: Alopecurus myosuroides, herbicidal effect (criteria 0-5)” value is 5 (Herbicidal ratio of 90% or more (almost completely withered)). The “R: Veronica persica, herbicidal effect grade” value in data set [12] is listed as 0 (Herbicidal ratio of 5% or lower (almost no effect)). For the same compound, the “J: Alopecurus myosuroides, herbicidal effect grade” value in data set [13] was 5 (Herbicidal ratio of 90% or more (almost completely withered)). Further, the “G: Setaria viridis, herbicidal effect (criteria 0-5)” value in [14] is 5 (Herbicidal ratio of 90% or more (almost completely withered)). Also, in data set [15], the “R: Veronica persica, herbicidal effect (criteria 0-5)” value was 3 (Herbicidal ratio of 40% or higher and lower than 70%). Besides, in data set [16], the “N: Amaranthus retroflexus, herbicidal effect (criteria 0-5)” value is 5 (Herbicidal ratio of 90% or more (almost completely withered)). Also, the “herbicidal effect on E, grade 0-5” value in [17] is reported as 5 (Herbicidal ratio of 90% or more (almost completely withered)). Besides, the “I: Avena fatua, herbicidal effect (criteria 0-5)” value in data set [18] is reported as 5 (Herbicidal ratio of 90% or more (almost completely withered)). In data set [19], the “e: wheat, effect grade on crop” value was 3 (Herbicidal ratio of 40% or higher and lower than 70%).
For the compound `CON=C(C)CC1CC(OC(=O)C(CSC)=NOC)=C(c2c(C)cc(C)cc2C)C1=O` (centres unmarked) [1-098], the “Herbicidal effect grade, A: Echinochloa oryzacola Vasing.” value in [1] is recorded as 5 (Herbicidal ratio of 90% or more (almost completely withered)). For the same compound, the “K: Lolium multiflorum Lam., herbicidal effect grade” value in [2] was 5 (Herbicidal ratio of 90% or more (almost completely withered)). Moreover, in data set [3], the “d: soybean, effect grade on crop” value was 2 (Herbicidal ratio of 20% or higher and lower than 40%). The “c: corn, effect grade on crop” value in data set [4] was 5 (Herbicidal ratio of 90% or more (almost completely withered)). Also, in [5], the “b: directly sowed rice plant, effect grade on crop” value is 5 (Herbicidal ratio of 90% or more (almost completely withered)). In addition, the “G: Setaria viridis, herbicidal effect grade” value in data set [6] was 5 (Herbicidal ratio of 90% or more (almost completely withered)). Moreover, the “d: soybean, effect on crop (criteria 0-5)” value in [7] is 3 (Herbicidal ratio of 40% or higher and lower than 70%). The “K: Lolium multiflorum Lam., herbicidal effect (criteria 0-5)” value in [8] is listed as 5 (Herbicidal ratio of 90% or more (almost completely withered)). Moreover, the “Q: Galium spurium, herbicidal effect grade” value in data set [9] is 0 (Herbicidal ratio of 5% or lower (almost no effect)). Moreover, in data set [10], the “L: Apera spica-venti, herbicidal effect grade” value is listed as 5 (Herbicidal ratio of 90% or more (almost completely withered)). For the same compound, the “J: Alopecurus myosuroides, herbicidal effect (criteria 0-5)” value in data set [11] was 5 (Herbicidal ratio of 90% or more (almost completely withered)). Moreover, the “R: Veronica persica, herbicidal effect grade” value in data set [12] is 0 (Herbicidal ratio of 5% or lower (almost no effect)). The “J: Alopecurus myosuroides, herbicidal effect grade” value in data set [13] is given as 5 (Herbicidal ratio of 90% or more (almost completely withered)). Also, in data set [14], the “G: Setaria viridis, herbicidal effect (criteria 0-5)” value is 5 (Herbicidal ratio of 90% or more (almost completely withered)). In addition, in data set [15], the “R: Veronica persica, herbicidal effect (criteria 0-5)” value was 3 (Herbicidal ratio of 40% or higher and lower than 70%). Moreover, in data set [16], the “N: Amaranthus retroflexus, herbicidal effect (criteria 0-5)” value is 0 (Herbicidal ratio of 5% or lower (almost no effect)). For the same compound, the “herbicidal effect on E, grade 0-5” value in [17] was 5 (Herbicidal ratio of 90% or more (almost completely withered)). Besides, the “I: Avena fatua, herbicidal effect (criteria 0-5)” value in data set [18] is 5 (Herbicidal ratio of 90% or more (almost completely withered)). Besides, in data set [19], the “e: wheat, effect grade on crop” value was 3 (Herbicidal ratio of 40% or higher and lower than 70%).
